Measurements published in PMC4030749 (Molecular cancer therapeutics, 2012).
“And” between values parts separate entries of the source, which are not always exact repeats. Identical values can stand only once. One block for each molecule: values may come before it.

How the values were obtained:
Sm3e/C825 bsAb [1] = assay: Binding affinity of Sm3e/C825 bsAb; conditions: unlabeled (no metal) DOTA
[2] = system: LS174T and C6 tumor-bearing mice; assay: Pretargeted organ/tissue biodistribution in tumor-bearing mice; assay type: in vivo
Sm3e/C825 bsAb [3] = conditions: read-out: binding affinity (KD) to bsAb; cited from earlier work
[4] = pretargeted protocol, 24 h p.i., n=3
[5] = pretargeted protocol, 4 h p.i., n=3
[6] = pretargeted protocol, 48 h p.i., n=3

SMILES: O=C(O)CN1CCN(CC(=O)O)CCN(CC(=O)O)CCN(CC(=O)O)CC1 [DOTA, 1,4,7,10-Tetraazacyclododecane-1,4,7,10-tetraacetic acid]
binding to pretargeted anti-DOTA binding sites (Sm3e/C825 bsAb [1]): no observable binding

Biodistribution, LS174T Tumor (antigen-positive) [2, 4]: 0.5 ± 0.1 %ID/g
Tumor/organ ratio, LS174T tumor-to-Kidneys (both) [2, 4]: 1.2 ± 0.4
SMILES: O=C([O-])CN1CCN(CC(=O)[O-])CCN(CC(=O)[O-])CCN(CC(=O)[O-])CC1.[111In+3] [^111In-DOTA]
Kd (Sm3e/C825 bsAb [3]): 20 nM

antigen-positive tumor uptake, pretargeted versus ^177Lu-DOTA alone ([2]; 4 h post-injection): approximately 90 fold
Biodistribution, Adipose [2, 5]: 2.78 ± 1.08 %ID/g
Biodistribution, Blood [2, 5]: 0.42 ± 0.02 %ID/g
Biodistribution, Bone (femur) [2, 5]: 1.49 ± 0.38 %ID/g
Biodistribution, C6 Tumor (antigen-negative) [2, 5]: 9.82 ± 0.35 (0.26 ± 0.08 g) %ID/g
Biodistribution, Heart [2, 5]: 0.25 ± 0.16 %ID/g
Biodistribution, Kidneys (both) [2, 5]: 0.92 ± 0.05 %ID/g
Biodistribution, LS174T Tumor (antigen-positive) [2, 5]: 7.44 ± 0.41 (0.09 ± 0.03 g) %ID/g
Biodistribution, Lg Intestine [2, 5]: 0.13 ± 0.09 %ID/g
Biodistribution, Liver [2, 5]: 0.59 ± 0.21 %ID/g
Biodistribution, Lung [2, 5]: 1.25 ± 0.43 %ID/g
Biodistribution, Muscle [2, 5]: 1.56 ± 0.56 %ID/g
Biodistribution, Skin [2, 5]: 4.68 ± 1.06 %ID/g
Biodistribution, Sm Intestine [2, 5]: 0.28 ± 0.02 %ID/g
Biodistribution, Spleen [2, 5]: 0.39 ± 0.09 %ID/g
Biodistribution, Stomach (with contents) [2, 5]: 0.21 ± 0.12 %ID/g
Tumor/organ ratio, Adipose [2, 5]: 3.2 ± 1.5
Tumor/organ ratio, Bone (femur) [2, 5]: 5.3 ± 1.6
Tumor/organ ratio, C6 Tumor [2, 5]: 0.7 ± 0.1
Tumor/organ ratio, Heart [2, 5]: 49 ± 36
Tumor/organ ratio, LS174T Tumor [2, 5]: 1
Tumor/organ ratio, LS174T tumor-to-Blood [2, 5]: 18 ± 2
Tumor/organ ratio, Lg Intestine [2, 5]: 80 ± 36
Tumor/organ ratio, Liver [2, 5]: 13.9 ± 3.7
Tumor/organ ratio, Lung [2, 5]: 7.2 ± 3.7
Tumor/organ ratio, Muscle [2, 5]: 5.3 ± 1.6
Tumor/organ ratio, Skin [2, 5]: 1.7 ± 0.4
Tumor/organ ratio, Sm Intestine [2, 5]: 27 ± 4
Tumor/organ ratio, Spleen [2, 5]: 20 ± 5
Tumor/organ ratio, Stomach (with contents) [2, 5]: 48 ± 22
Biodistribution, Adipose [2, 4]: 0.67 ± 0.12 %ID/g
Biodistribution, Blood [2, 4]: 0.04 ± 0.01 %ID/g
Biodistribution, Bone (femur) [2, 4]: 0.43 ± 0.12 %ID/g
Biodistribution, C6 Tumor (antigen-negative) [2, 4]: 4.23 ± 0.54 (0.26 ± 0.07 g) %ID/g
Biodistribution, Heart [2, 4]: 0.05 ± 0.01 %ID/g
Biodistribution, Kidneys (both) [2, 4]: 0.88 ± 0.16 %ID/g
Biodistribution, Lg Intestine [2, 4]: 0.52 ± 0.56 %ID/g
Biodistribution, Liver [2, 4]: 0.51 ± 0.23 %ID/g
Biodistribution, Lung [2, 4]: 0.37 ± 0.07 %ID/g
Biodistribution, Muscle [2, 4]: 0.41 ± 0.24 %ID/g
Biodistribution, Skin [2, 4]: 1.05 ± 0.25 %ID/g
Biodistribution, Sm Intestine [2, 4]: 0.08 ± 0.04 %ID/g
Biodistribution, Spleen [2, 4]: 0.29 ± 0.09 %ID/g
Biodistribution, Stomach (with contents) [2, 4]: 0.09 ± 0.07 %ID/g
Tumor/organ ratio, Adipose [2, 4]: 23 ± 6
Tumor/organ ratio, Bone (femur) [2, 4]: 38 ± 16
Tumor/organ ratio, C6 Tumor [2, 4]: 3.4 ± 0.3
Tumor/organ ratio, Heart [2, 4]: 323 ± 108
Tumor/organ ratio, LS174T Tumor [2, 4]: 1
Tumor/organ ratio, LS174T tumor-to-Blood [2, 4]: 380 ± 90
Tumor/organ ratio, Lg Intestine [2, 4]: 83 ± 53
Tumor/organ ratio, Liver [2, 4]: 33 ± 11
Tumor/organ ratio, Lung [2, 4]: 39 ± 3
Tumor/organ ratio, Muscle [2, 4]: 57 ± 41
Tumor/organ ratio, Skin [2, 4]: 14 ± 2
Tumor/organ ratio, Sm Intestine [2, 4]: 217 ± 76
Tumor/organ ratio, Spleen [2, 4]: 52 ± 12
Tumor/organ ratio, Stomach (with contents) [2, 4]: 252 ± 119
Biodistribution, Adipose [2, 6]: 0.60 ± 0.29 %ID/g
Biodistribution, Bone (femur) [2, 6]: 0.24 ± 0.10 %ID/g
Biodistribution, C6 Tumor (antigen-negative) [2, 6]: 2.89 ± 2.28 (0.28 ± 0.13 g) %ID/g
Biodistribution, Heart [2, 6]: 0.07 ± 0.03 %ID/g
Biodistribution, Kidneys (both) [2, 6]: 0.62 ± 0.19 %ID/g
Biodistribution, LS174T Tumor (antigen-positive) [2, 6]: 13.44 ± 3.25 (0.49 ± 0.09 g) %ID/g
Biodistribution, Lg Intestine [2, 6]: 0.11 ± 0.04 %ID/g
Biodistribution, Liver [2, 6]: 0.56 ± 0.35 %ID/g
Biodistribution, Lung [2, 6]: 0.21 ± 0.04 %ID/g
Biodistribution, Muscle [2, 6]: 0.15 ± 0.07 %ID/g
Biodistribution, Skin [2, 6]: 0.71 ± 0.20 %ID/g
Biodistribution, Sm Intestine [2, 6]: 0.14 ± 0.11 %ID/g
Biodistribution, Spleen [2, 6]: 0.64 ± 0.60 %ID/g
Biodistribution, Stomach (with contents) [2, 6]: 0.22 ± 0.24 %ID/g
Tumor/organ ratio, Adipose [2, 6]: 28 ± 13
Tumor/organ ratio, Bone (femur) [2, 6]: 60 ± 19
Tumor/organ ratio, C6 Tumor [2, 6]: 10 ± 9
Tumor/organ ratio, Heart [2, 6]: 244 ± 85
Tumor/organ ratio, LS174T Tumor [2, 6]: 1
Tumor/organ ratio, Lg Intestine [2, 6]: 128 ± 16
Tumor/organ ratio, Liver [2, 6]: 32 ± 13
Tumor/organ ratio, Lung [2, 6]: 63 ± 6
Tumor/organ ratio, Muscle [2, 6]: 105 ± 40
Tumor/organ ratio, Skin [2, 6]: 20 ± 8
Tumor/organ ratio, Sm Intestine [2, 6]: 183 ± 129
Tumor/organ ratio, Spleen [2, 6]: 40 ± 21
Tumor/organ ratio, Stomach (with contents) [2, 6]: 276 ± 236
SMILES: O=C([O-])CN1CCN(CC(=O)[O-])CCN(CC(=O)[O-])CCN(CC(=O)[O-])CC1.[177Lu+3].[H+] [^177Lu-DOTA]
Biodistribution, LS174T Tumor (antigen-positive) [2, 4]: 14.3 ± 1.8 %ID/g and 14.34 ± 1.83 (0.21 ± 0.10 g) %ID/g
Kd (Sm3e/C825 bsAb [3]): 0.4 nM
